One series deals with TNF-alpha mRNA. Nature of the series: TNF-alpha mRNA expression in LPS stimulated PBMC (qRT-PCR). The series is classed as cell-based, human. The note with it: LPS stimulated PBMC from PAV/PAV subjects, transient. Here is the method: (§1) Figure 5 In bacterial LPS stimulated PBMC, AITC triggers MAPK activation and TNF-α inhibition in dependence of the TAS2R38 genotype. PBMC were exposed to AITC or 0.01% DMSO (SC) together with 100 pg/mL LPS. (A) Representative immunoblots are given. Densitometric analysis was done to quantify the immunoblots using Quantity One software (Bio-Rad, Munich, Germany) and normalized against β-actin, which was used as loading control. (B, C) Cytokine secretion at 3 and 24 h was analyzed using ELISA kits. (D) Time kinetic of TNF-α mRNA expression. Results are means + SD and given as fold of the solvent control. Results were calculated relative to the corresponding solvent control (SC, 0.01% DMSO). Significance of difference was determined compared to the respective SC by one-way ANOVA, *p < 0.05, **p < 0.01.

Another series concerns TNF-α. Nature of the series: TNF-α secretion of PBMC (ELISA), LPS stimulated or unstimulated. The series is classed as cell-based, human. Here is the method: PBMC (1x10^6/mL) cultured in RPMI 1640 medium supplemented with 10% heat-inactivated fetal calf serum, 2 mM L-glutamine, 100 U/ml penicillin/streptomycin were stimulated with 0.5 ng/ml CD3/CD28 MAbs and exposed to the test compounds. After 24 h, supernatants were collected and stored at -80°C until analysis using the human MACSplex cytokine 12-kit (Miltenyi Biotec GmbH, Bergisch Gladbach, Germany) according to manufacturer’s protocol to quantify cytokine secretion. Supernatants were also used for photometric quantification by the human TNF-alpha or IL-1β ELISA Ready-Set-Go kit from eBIoscience (Frankfurt, Germany) according to the manufacturer’s instructions.
as §1

Series [1] in a line: Human food intervention: AITC metabolite plasma levels after mustard intake (LC-ESI-MS/MS). The series is classed as in vivo. The note with it: single intake of an AITC containing food product. Here is the method:
AITC metabolite quantification was carried out in blood plasma samples derived from an intervention study at the University Medical Center in Freiburg, Germany. Samples were from 4 healthy young adults (3 females, 1 male, aged between 30-40 years) having a normal BMI, and were non-smokers. Each subject consumed one time 10 g of a commercially available mustard preparation ([…] Munich, Germany) containing 24.74 ± 1.76 μmol/g fresh weight preformed AITC on an empty stomach with optional consumption of white bread. The intervention was preceded by a 48 h wash-out phase consisting of a glucosinolate/ITC-free diet. After 30 min and optionally 60 min, blood was collected by venipuncture in serum tubes and centrifuged at 2000g for 10 min, 4°C to obtain serum. Subsequently, TFA was added and the samples frozen at -80°C. The preparation of serum samples (300 μL serum and 100 μL TFA) was conducted as described by Kühn et al. ([37]). The frozen samples were thawed, vortexed (1 min) and centrifuged (4 °C, 10 min, 20.854 x g). The supernatant was transferred to SPE cartridges. Prior to transferring, SPE cartridges were conditioned with acetonitrile (ACN, 3 mL) and equilibrated with water (3 mL). After sample application, the cartridges were washed with formic acid (FA, 3 mL, 0.1% in water) and the metabolites were eluted with FA (3 mL, 0.1% in ACN:water, 90:10, v/v). […] The samples were re-dissolved in 100 μL FA (0.1% in ACN:water, 90:10, v/v). Sample aliquots of 5 μL were injected into the LC-ESI-MS/MS system. LC-ESI-MS/MS analysis was performed on an API4000 triple quadrupole mass spectrometer (AB Sciex Germany GmbH, Darmstadt, Germany) equipped with an Agilent 1200 LC system (Agilent Technologies Deutschland GmbH & Co. KG, Waldbronn, Germany). For data acquisition and processing the software Analyst 1.6.1 (AB Sciex Germany GmbH, Darmstadt, Germany) was used. […] AITC-CysGly; AITC-Cys; AITC-NAC) was conducted according to Platz et al. ([38]) with minor modifications. The separation was performed on a Kinetex C18 column (Phenomenex, 5 μm, 100 Å, 150 x 2.1 mm). The autosampler operated at 4°C and the set temperature for the oven was 20°C. A constant flow of 300 μL/min was used for the mobile phase which consisted of 0.1% FA in water (A) and 0.1% FA in ACN (B). […] In order to equilibrate the column, A was increased to 90% and held for 5 min. The relevant MS parameters include an entrance potential of -10 V, a desolvation gas temperature of 450°C, ion spray potential of -4.5 kV, gas 1 and gas 2 at 46 psi and a curtain gas pressure at 10 psi.

Each structure is given as a SMILES string.

The inhibition is the drop in the measured response relative to a control, in per cent.

As for `C=CCN=C=S` [AITC, allyl isothiocyanate], the “inhibition of TNF-alpha mRNA expression” value in the series on TNF-alpha mRNA worked out at 50%. Further, the TNF-α release result with TNF-α (AITC exposure without inflammatory stimulus (data not shown)) is reported as “no change”. In addition, in the series on TNF-α (Homo sapiens, 3 h LPS activated PBMC, 3 µM AITC, dependent on TAS2R38 receptor functionality, read-out: peak inhibition of TNF-α secretion), the inhibition at 3 µM was 54%. The TNF-α secretion entry with TNF-α (LPS, prolonged incubation 24 h, PAV/PAV group, all tested concentrations) is reported as “abolished the effect”. In addition, the AITC plasma levels result in series [1] is reported as “around one”.

The values are drawn from paper PMC8103899, “Allyl Isothiocyanate: A TAS2R38 Receptor-Dependent Immune Modulator at the Interface Between Personalized Medicine and Nutrition” (Frontiers in Immunology, 2021).
